These results are taken from US8703720B2, “Galactoside inhibitors of galectins” (Galecto Biotech AB, priority 2009, dated 2014).

For assay [1], the target named is galectin-1 (Homo sapiens (Human), UniProt P09382). The assay can be described thus: Fluorescence polarization-based galectin-1 inhibition assay. The settings on record: calculated from test by fluorescence polarization at the tested conc. It counts as binding. An excerpt:
(§1) The known galectin inhibitors galactose and N-acetyllactosamine methyl glycosides were included as reference compounds.
(§2) Identification of the substances was made by HRMS (Micromass Q-tof micro) and NMR (Bruker Ultrashield 400 plus, 400 MHz). Chemical shifts are reported downfield from Me4Si using residual CHD2Cl (7.26 ppm) or CHD2OD (3.35 ppm) as reference. Chemical shifts and coupling constants were obtained from ^1H-NMR and proton resonances were assigned from COSY experiments. Purification was made by RF-HPLC (Beckman, system gold) or flash chromatography, using silica gel (Davisil 35-70 μm, 60 Å). Reactions were followed by TLC (Aluminum sheet, silica gel 60 F254) observed by UV light, H2SO4(aq) or a iso-vanillin/H2SO4/EtOH solution. THF and Et2O were dried over sodium/benzophenone and distilled. CH2Cl2 was dried by molecular sieves (4 Å, 1.6 mm). Other solvents and reagents were commercially available and used without further purifications. Fluorescence polarization experiments were performed on a PolarStar instrument (BMG, Offenburg; Germany). Evaluation of 7, 15-19, and 22 as inhibitors of galectins was performed by use of fluorescence polarization as described in the literature (Sörme et al., 2003a, 2004).

The target of assay [2] is galectin-3 (Homo sapiens (Human), UniProt P17931). The assay can be described thus: Fluorescence polarization-based galectin-3 inhibition assay. It counts as binding. To be noted: calculated from test by fluorescence polarization at the tested conc.
Excerpt: as §1, §2

For assay [3], the target named is galectins. To be noted: all galectins, cited from earlier work.

Chain of galectin-3 (P17931 whole entry): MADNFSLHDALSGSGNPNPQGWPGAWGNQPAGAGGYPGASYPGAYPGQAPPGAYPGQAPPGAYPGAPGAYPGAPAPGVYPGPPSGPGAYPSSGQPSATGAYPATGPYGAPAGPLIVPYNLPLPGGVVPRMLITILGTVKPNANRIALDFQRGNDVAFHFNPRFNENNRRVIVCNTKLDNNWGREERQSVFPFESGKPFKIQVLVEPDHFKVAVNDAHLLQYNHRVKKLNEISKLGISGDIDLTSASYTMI
Chain of galectin-1 (P09382 whole entry, species assumed): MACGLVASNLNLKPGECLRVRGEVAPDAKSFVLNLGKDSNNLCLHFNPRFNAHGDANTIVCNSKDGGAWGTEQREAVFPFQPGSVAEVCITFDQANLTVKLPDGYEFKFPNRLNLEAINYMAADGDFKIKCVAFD

One may read the Kd as the constant that tells how readily two partners part at equilibrium. As to `OC[C@H]1O[C@@H](S[C@@H]2CCC[C@H](n3cc(-c4ccccc4F)nn3)[C@H]2O)[C@H](O)[C@@H](n2cc(-c3ccccc3F)nn2)[C@H]1O` [Compound 15, ((1R,2R,3S)-2-hydroxy-3-(4-(2-fluorophenyl)-1H-1,2,3-triazol-1-yl)-cyclohexyl) 3-deoxy-3-(4-(2-fluorophenyl)-1H-1,2,3-triazol-1-yl)-1-thio-β-D-galactopyranoside], the Kd in assay [1] is 1.9 µM; in assay [2], 0.23 µM. On the same counts, the results for `OC[C@H]1O[C@@H](S[C@@H]2CCC[C@H](n3cc(-c4ccsc4)nn3)[C@H]2O)[C@H](O)[C@@H](n2cc(-c3ccsc3)nn2)[C@H]1O` [Compound 18, ((1R,2R,3S)-2-hydroxy-3-(4-(3-thiopheneyl)-1H-1,2,3-triazol-1-yl)-cyclohexyl) 3-deoxy-3-(4-(3-thienyl)-1H-1,2,3-triazol-1-yl)-1-thio-β-D-galactopyranoside] are 0.35 µM and 0.55 µM. On to `OC[C@H]1O[C@@H](O[C@H]2[C@H](O)[C@@H](O)C(O)O[C@@H]2CO)[C@H](O)[C@@H](O)[C@H]1O` (some centres unmarked) [lactose], for which the Kd in assay [3] is 500 to 1000 µM. For the compound `O=C(NC1CCC[C@@H](S[C@@H]2OC(CO)[C@H](O)[C@H](NC(=O)c3ccc(Cl)cc3)C2O)C1O)c1ccc(Cl)cc1` (stereo partly drawn) [Compound 23, ((1R,2R,3S)-2-hydroxy-3-(4-chlorobenzamido)-cyclohexyl)-3-deoxy-3-(4-chlorobenzamido)-thio-β-D-galactopyranoside], the Kd is 6.3 µM in assay [1] and 1.4 µM in assay [2]. For `CCCNC(=O)c1cn([C@H]2[C@@H](O)[C@@H](CO)O[C@@H](O[C@@H]3CCC[C@H](n4cc(C(=O)NCCC)nn4)[C@H]3O)[C@@H]2O)nn1` [Compound 7, ((1R,2R,3S)-2-hydroxy-3-(4-(N-(1-propyl)-carbamoyl)-1H-1,2,3-triazol-1-yl)cyclohexyl) 3-deoxy-(3-(4-(N-(1-propyl)-carbamoyl)-1H-1,2,3-triazol-1-yl))-β-D-galactopyranoside], the Kd in assay [2] is 0.43 µM. `OC[C@H]1O[C@@H](S[C@@H]2CCC[C@H](n3cc(-c4ccc(F)cc4)nn3)[C@H]2O)[C@H](O)[C@@H](n2cc(-c3ccc(F)cc3)nn2)[C@H]1O` [Compound 17, ((1R,2R,3S)-2-hydroxy-3-(4-(4-fluorophenyl)-1H-1,2,3-triazol-1-yl)-cyclohexyl) 3-deoxy-3-(4-(4-fluorophenyl)-1H-1,2,3-triazol-1-yl)-1-thio-β-D-galactopyranoside]: the values for the Kd in assay [1] and in assay [2] were 1.2 µM and 0.21 µM, respectively. For `O=C[C@H](O)[C@@H](O)[C@@H](O)[C@H](O)CO` [D-galactose], the “affinity relative to lactose” value in assay [3] (compared with lactose) is 50-100 times lower.

Take `CCCNC(=O)c1cn(C2CCC[C@@H](S[C@@H]3OC(CO)[C@H](O)[C@H](n4cc(C(=O)NCCC)nn4)C3O)C2O)nn1` (stereo partly drawn) [Compound 19, ((1R,2R,3S)-2-hydroxy-3-(4-(propylcarbamoyl)-1H-1,2,3-triazol-1-yl)-cyclohexyl)-3-deoxy-3-(4-(propylcarbamoyl)-1H-1,2,3-triazol-1-yl)-thio-β-D-galactopyranoside]: the values for the Kd in assay [1] and in assay [2] were 1.3 µM and 0.19 µM, respectively.

Regarding `OC[C@H]1O[C@@H](S[C@@H]2CCC[C@H](n3cc(-c4cccc(F)c4)nn3)[C@H]2O)[C@H](O)[C@@H](n2cc(-c3cccc(F)c3)nn2)[C@H]1O` [Compound 16, ((1R,2R,3S)-2-hydroxy-3-(4-(3-fluorophenyl)-1H-1,2,3-triazol-1-yl)-cyclohexyl) 3-deoxy-3-(4-(3-fluorophenyl)-1H-1,2,3-triazol-1-yl)-1-thio-β-D-galactopyranoside], the Kd in assay [1] was 1.5 µM.
